Values of other authors in patent US7179939B2, “Sodium ferric gluconate complexes and method of manufacture thereof” (priority 2004, dated 2007).

- reactions associated with administration (severity) (occur at a lower rate compared to iron dextran): mild to moderate
- occurrence of allergic episodes (study comparing iron dextran with sodium ferric gluconate): 3.3 allergic episodes per million doses
Substance: sodium ferric gluconate complex in sucrose
